Reference: ChEMBL document CHEMBL1139325, “Discovery of targeting ligands for breast cancer cells using the one-bead one-compound combinatorial method” (J Med Chem, 2009)
Active and inactive are the calls of the source.

Experiments:
Type in all cases: cell-based
K562 [1] = assay: Decrease in binding affinity to integrin alpha3 M164A mutant expressed in human K562 cells by flow cytometry
K562 [2] = assay: Decrease in binding affinity to integrin alpha3 T162A mutant expressed in human K562 cells by flow cytometry
[3] = molecular target: T1, Integrin alpha-6 (Homo sapiens) (UniProt P23229); assay: Binding affinity to integrin alpha6 expressed in human K562 cells at 1 uM for 30 mins by flow cytometry
T1 sequence (whole entry): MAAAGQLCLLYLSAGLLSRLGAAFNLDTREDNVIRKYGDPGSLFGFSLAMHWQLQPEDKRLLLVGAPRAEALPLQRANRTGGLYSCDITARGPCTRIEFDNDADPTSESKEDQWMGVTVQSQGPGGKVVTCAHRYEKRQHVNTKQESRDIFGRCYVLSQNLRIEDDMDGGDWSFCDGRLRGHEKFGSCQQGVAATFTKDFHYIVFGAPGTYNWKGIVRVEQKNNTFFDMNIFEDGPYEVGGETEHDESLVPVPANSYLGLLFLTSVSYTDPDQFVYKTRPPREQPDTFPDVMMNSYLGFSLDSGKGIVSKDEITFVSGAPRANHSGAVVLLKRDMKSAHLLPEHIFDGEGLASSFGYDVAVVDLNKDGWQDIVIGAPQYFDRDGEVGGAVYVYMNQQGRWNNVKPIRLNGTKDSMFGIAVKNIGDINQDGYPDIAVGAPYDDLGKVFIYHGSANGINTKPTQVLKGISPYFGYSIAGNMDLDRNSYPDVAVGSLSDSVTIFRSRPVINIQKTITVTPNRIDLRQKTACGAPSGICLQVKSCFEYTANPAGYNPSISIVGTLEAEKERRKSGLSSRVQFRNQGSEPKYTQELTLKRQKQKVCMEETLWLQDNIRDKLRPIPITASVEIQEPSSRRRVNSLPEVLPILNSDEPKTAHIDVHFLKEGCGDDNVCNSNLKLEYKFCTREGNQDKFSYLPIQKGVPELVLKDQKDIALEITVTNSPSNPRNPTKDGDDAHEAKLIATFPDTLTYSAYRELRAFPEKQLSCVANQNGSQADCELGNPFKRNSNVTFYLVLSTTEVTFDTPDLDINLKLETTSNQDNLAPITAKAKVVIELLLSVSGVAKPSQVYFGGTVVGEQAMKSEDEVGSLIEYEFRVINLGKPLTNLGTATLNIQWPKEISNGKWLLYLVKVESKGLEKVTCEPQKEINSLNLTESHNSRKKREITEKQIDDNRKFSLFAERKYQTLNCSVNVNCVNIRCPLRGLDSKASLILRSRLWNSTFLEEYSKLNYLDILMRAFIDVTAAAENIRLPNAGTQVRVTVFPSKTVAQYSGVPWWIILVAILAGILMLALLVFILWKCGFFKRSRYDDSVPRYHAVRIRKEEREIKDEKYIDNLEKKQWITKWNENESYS

[4] = molecular target: Integrin alpha-2 (Homo sapiens) (UniProt P17301); assay: Binding affinity to integrin alpha2 expressed in human K562 cells at 1 uM for 30 mins by flow cytometry
Chain of Integrin alpha-2 (Homo sapiens) (P17301 whole entry): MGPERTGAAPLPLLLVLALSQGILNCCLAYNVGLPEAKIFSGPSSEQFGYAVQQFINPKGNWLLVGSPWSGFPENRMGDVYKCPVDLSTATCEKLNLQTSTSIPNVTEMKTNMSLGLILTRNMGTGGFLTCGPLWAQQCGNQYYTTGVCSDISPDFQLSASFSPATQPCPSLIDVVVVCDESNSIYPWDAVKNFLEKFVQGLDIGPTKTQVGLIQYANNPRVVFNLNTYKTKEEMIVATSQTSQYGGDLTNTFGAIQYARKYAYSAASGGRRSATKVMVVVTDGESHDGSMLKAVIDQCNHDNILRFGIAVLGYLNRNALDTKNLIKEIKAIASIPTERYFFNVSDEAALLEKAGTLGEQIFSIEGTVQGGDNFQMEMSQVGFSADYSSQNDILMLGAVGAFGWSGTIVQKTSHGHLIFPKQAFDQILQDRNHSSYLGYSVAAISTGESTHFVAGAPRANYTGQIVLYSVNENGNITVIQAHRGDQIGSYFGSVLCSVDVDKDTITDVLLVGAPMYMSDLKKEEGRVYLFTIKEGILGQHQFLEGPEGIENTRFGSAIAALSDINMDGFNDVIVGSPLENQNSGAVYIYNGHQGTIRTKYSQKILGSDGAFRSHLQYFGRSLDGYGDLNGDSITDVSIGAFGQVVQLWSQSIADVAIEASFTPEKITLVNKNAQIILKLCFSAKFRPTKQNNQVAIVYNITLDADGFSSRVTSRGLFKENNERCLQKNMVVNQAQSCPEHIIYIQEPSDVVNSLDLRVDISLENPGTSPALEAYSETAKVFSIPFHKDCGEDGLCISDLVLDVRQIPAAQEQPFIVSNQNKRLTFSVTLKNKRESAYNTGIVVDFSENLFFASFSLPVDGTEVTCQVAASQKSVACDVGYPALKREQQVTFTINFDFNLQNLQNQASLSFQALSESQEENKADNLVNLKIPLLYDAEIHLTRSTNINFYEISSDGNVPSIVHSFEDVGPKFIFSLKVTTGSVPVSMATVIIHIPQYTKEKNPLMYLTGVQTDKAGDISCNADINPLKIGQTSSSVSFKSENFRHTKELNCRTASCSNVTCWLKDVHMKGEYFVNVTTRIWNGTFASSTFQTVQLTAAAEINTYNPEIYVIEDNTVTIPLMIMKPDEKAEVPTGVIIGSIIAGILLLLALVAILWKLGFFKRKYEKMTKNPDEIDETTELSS

K562 [5] = assay: Decrease in binding affinity to integrin alpha3 Y186A mutant expressed in human K562 cells by flow cytometry
K562 [6] = assay: Decrease in binding affinity to integrin alpha3 T162F mutant expressed in human K562 cells by flow cytometry
[7] = molecular target: Integrin alpha-5 (Homo sapiens) (UniProt P08648); assay: Binding affinity to integrin alpha5 in human K562 cells at 1 uM for 30 mins by flow cytometry
Chain of Integrin alpha-5 (Homo sapiens) (P08648 42-894 limits assumed): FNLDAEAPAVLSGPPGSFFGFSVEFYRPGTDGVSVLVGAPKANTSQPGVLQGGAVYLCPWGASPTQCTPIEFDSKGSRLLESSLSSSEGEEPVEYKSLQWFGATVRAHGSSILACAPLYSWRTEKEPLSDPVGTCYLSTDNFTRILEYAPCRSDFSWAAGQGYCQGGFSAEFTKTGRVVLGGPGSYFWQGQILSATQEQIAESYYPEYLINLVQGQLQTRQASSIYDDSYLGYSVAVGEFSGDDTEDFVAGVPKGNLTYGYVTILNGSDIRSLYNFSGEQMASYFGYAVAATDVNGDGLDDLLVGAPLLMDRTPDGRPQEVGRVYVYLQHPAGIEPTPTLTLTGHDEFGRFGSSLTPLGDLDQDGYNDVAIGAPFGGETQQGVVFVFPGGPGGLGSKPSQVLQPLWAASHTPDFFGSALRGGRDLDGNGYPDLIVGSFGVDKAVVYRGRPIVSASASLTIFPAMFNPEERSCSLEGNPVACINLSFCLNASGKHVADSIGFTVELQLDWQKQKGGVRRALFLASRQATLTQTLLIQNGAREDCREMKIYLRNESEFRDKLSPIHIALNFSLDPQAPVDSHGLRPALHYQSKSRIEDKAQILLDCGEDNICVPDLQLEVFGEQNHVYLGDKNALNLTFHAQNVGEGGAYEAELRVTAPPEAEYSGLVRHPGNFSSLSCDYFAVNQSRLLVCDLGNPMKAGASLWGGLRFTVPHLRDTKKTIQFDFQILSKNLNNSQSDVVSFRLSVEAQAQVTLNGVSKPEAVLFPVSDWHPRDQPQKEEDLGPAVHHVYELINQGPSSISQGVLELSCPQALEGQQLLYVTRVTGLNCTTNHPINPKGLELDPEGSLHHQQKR
Chain of Integrin alpha-5 (Homo sapiens) (P08648 895-1049 limits assumed): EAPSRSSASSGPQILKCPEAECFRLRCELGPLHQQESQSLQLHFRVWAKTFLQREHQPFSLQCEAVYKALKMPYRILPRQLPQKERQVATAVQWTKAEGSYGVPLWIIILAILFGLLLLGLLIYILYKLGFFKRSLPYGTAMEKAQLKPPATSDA

[8] = molecular target: Integrin alpha-V/beta-3 (Homo sapiens) (UniProt P05106+P06756); assay: Binding affinity to integrin alphaVbeta3 expressed in human K562 cells at 1 uM for 30 mins by flow cytometry
K562 [9] = assay: Decrease in binding affinity to integrin alpha3 D15A mutant expressed in human K562 cells by flow cytometry
K562 [10] = assay: Decrease in binding affinity to integrin alpha3 G163A mutant expressed in human K562 cells by flow cytometry
[11] = molecular target: T2, Integrin alpha-9 (Homo sapiens) (UniProt Q13797); assay: Binding affinity to integrin alpha9 expressed in human K562 cells at 1 uM for 30 mins by flow cytometry
T2 sequence (whole entry): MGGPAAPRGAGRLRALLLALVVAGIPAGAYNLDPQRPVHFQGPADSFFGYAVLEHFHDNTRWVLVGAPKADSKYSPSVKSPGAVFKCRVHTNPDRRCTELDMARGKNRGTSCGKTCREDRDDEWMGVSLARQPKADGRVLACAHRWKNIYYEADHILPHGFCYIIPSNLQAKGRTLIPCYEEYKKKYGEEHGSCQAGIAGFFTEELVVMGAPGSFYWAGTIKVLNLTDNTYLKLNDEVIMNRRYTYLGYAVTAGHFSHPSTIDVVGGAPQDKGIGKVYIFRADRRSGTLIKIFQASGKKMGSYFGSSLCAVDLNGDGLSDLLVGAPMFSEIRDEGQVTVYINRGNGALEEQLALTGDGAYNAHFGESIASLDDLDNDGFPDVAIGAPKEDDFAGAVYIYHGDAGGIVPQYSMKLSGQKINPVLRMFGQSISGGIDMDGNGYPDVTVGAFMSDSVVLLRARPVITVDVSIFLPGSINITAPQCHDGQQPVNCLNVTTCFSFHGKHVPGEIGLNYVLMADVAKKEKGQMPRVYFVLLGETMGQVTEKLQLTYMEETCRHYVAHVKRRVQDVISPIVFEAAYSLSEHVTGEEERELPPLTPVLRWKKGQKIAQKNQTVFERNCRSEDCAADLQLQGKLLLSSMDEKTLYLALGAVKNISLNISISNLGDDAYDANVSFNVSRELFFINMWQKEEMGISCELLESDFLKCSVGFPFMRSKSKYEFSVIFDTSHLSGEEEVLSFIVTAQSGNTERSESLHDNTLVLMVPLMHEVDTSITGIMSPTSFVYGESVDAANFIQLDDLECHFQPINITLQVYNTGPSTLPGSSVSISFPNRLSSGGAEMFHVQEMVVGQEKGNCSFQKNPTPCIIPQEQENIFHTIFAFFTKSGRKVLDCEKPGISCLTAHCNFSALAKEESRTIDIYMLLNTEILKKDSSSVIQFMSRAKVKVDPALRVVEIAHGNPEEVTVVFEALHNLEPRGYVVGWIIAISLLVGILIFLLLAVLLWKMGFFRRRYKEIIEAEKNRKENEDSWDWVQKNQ

[12] = molecular target: Integrin alpha-1 (Homo sapiens) (UniProt P56199); assay: Binding affinity to integrin alpha1 expressed in human K562 cells at 1 uM for 30 mins by flow cytometry
Chain of Integrin alpha-1 (Homo sapiens) (P56199 whole entry): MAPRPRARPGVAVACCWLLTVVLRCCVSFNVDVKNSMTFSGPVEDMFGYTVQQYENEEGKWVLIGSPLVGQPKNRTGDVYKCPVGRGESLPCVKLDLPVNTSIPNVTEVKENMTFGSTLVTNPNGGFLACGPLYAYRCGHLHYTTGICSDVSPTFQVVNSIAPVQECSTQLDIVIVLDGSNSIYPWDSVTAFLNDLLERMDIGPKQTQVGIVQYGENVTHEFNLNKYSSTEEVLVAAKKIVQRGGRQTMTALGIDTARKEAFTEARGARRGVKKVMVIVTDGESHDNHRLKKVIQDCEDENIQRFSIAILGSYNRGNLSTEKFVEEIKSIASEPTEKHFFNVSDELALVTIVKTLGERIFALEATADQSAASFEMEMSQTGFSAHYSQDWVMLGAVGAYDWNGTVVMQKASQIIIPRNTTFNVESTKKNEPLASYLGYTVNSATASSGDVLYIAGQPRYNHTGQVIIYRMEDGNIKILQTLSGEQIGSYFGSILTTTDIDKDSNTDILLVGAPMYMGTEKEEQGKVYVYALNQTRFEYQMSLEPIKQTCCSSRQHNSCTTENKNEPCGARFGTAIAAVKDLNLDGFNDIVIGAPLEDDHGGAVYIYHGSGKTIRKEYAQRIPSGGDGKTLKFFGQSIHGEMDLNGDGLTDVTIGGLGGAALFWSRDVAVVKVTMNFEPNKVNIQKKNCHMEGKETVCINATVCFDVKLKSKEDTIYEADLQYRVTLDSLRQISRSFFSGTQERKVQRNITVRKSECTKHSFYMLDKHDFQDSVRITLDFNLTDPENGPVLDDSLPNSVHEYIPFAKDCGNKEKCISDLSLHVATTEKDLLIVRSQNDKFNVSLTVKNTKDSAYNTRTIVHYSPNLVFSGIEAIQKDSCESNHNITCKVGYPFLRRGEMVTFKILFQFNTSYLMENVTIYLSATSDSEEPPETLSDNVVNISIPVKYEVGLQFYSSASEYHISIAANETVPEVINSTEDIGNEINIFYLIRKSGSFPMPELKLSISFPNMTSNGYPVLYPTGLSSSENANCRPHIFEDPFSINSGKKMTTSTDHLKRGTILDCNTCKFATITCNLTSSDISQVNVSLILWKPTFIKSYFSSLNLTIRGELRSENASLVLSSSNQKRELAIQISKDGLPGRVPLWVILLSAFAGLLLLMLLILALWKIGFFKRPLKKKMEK

[13] = molecular target: Integrin alpha-4 (Homo sapiens) (UniProt P13612); assay: Binding affinity to integrin alpha4 expressed in human K562 cells at 1 uM for 30 mins by flow cytometry
Chain of Integrin alpha-4 (Homo sapiens) (P13612 whole entry): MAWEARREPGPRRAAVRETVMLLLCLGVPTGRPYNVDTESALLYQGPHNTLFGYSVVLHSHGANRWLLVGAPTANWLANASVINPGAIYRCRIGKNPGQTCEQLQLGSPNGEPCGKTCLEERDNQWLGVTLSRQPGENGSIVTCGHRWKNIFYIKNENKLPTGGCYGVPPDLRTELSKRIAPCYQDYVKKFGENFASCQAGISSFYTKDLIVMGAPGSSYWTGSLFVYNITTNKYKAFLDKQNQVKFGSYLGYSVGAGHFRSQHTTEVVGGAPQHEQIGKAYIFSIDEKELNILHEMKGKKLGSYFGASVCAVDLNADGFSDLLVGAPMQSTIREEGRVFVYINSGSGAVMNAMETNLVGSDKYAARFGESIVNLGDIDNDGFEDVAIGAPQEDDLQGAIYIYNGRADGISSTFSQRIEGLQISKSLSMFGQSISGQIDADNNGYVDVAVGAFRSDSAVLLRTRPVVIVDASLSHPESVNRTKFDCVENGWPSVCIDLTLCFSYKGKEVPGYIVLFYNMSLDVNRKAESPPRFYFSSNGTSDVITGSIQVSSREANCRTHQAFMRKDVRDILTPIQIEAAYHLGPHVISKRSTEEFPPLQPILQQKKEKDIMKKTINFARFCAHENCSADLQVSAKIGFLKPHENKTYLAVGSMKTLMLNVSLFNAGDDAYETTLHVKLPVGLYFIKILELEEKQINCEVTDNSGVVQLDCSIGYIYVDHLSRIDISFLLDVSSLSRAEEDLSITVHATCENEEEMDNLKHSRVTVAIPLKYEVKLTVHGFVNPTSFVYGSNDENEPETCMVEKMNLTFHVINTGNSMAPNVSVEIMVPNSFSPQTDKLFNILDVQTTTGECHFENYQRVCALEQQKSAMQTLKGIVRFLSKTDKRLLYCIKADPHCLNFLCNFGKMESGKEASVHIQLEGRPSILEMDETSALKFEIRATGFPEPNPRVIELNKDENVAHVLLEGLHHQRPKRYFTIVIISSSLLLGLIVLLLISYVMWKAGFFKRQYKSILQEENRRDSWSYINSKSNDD

Measured: Activity

CC(C)C[C@@H]1NC(=O)CNC(=O)[C@@H](CC(=O)O)NC(=O)[C@@H](N)CSSC[C@@H](C(N)=O)NC(=O)[C@H](CC(N)=O)NC(=O)[C@@H]2C[C@@H](O)CN2C(=O)CNC1=O
inactive: all assays above
